These results are taken from PMC3572379, “Pharmacokinetic and pharmacodynamic effects of comedication of clopidogrel and dabigatran etexilate in healthy male volunteers” (European Journal of Clinical Pharmacology, 2012).

The subject of data set [1] is blood coagulation parameters (aPTT, ECT, TT). Nature of the data set: Blood coagulation parameters aPTT, ECT and TT (anti-factor IIa). The data set is classed as in vivo, healthy male subjects. How it is done:
The secondary endpoints included other PK parameters and the effects of clopidogrel on the PD of dabigatran assessed by ECT, aPTT, TT (including maximum effect ratio, ERmax) as well as the CBT.
Calibration curves for clopidogrel and SR26334 covered concentration ranges of 0.01–10 ng/mL and 0.02–20 μg/mL, respectively, with an inaccuracy generally below 4% and imprecision below 9%. For blood coagulation parameters aPTT, ECT, and TT (PD analyses), ∼3 mL of blood were collected in sodium citrate monovettes at the time points indicated for PK analyses. The blood samples were centrifuged, frozen, and stored at −20°C or below. The aPTT, ECT, and TT parameters were analyzed on an MC10PLUS coagulometer using validated methods by BiochemA, Riegel, Germany. aPTT was measured using a kit from Roche Diagnostics (Mannheim, Germany) according to manufacturer’s instructions, and the ECT assay utilized ecarin from Pentapharm (Basel, Switzerland). Thrombin inhibition (TT), anti-factor IIa, was measured by the Hemoclot Thrombin Inhibitors Assay® (Hemoclot® TT #CK002K, HYPHEN BioMed, Neuville-sur-Oise, France) according to the manufacturer’s instructions. The Hemoclot kit was used for the quantitative measurement of direct thrombin inhibitors in plasma, with a clotting method based on the inhibition of a constant and defined concentration of thrombin.
AUEC and ERmax of aPTT, ECT, and TT as well as CBT, and safety and tolerability were assessed descriptively as secondary parameters.

The subject of data set [2] is ADP-induced platelet aggregation. Nature of the data set: ADP-induced inhibition of platelet aggregation (light transmission aggregometry in citrated PRP). The format is in vivo, healthy male subjects. The settings on record: DE 150 mg coadministered; after single dose clopidogrel 300 mg. How it is done: The primary endpoints for PD were area under the effect curve of ADP-induced inhibition of platelet aggregation (IPA) at steady state of clopidogrel over one dosing interval from 0–24 h after dosing (AUECIPA,τ,ss); maximum percentage change compared with baseline in ADP-induced platelet aggregation at steady state of clopidogrel (Emax,IPA,ss); AUEC from 0 to 24 h (AUECIPA,0–24) after the loading dose of clopidogrel 600 mg; and the maximum percentage change compared with baseline in ADP-induced platelet aggregation from 0 to 24 h (Emax,IPA,0–24) after the loading dose of clopidogrel 600 mg.
The following PD parameters were also evaluated: • For clopidogrel, ADP-induced IPA was determined at predefined time points. • Capillary bleeding times were assessed (part 2 and part 3 of the study) before clopidogrel administration, 2, 4, and 12 h after clopidogrel administration, and following administration of dabigatran etexilate alone.
For platelet aggregation testing, ∼9 mL of blood was collected into a 10 mL monovette containing citrate to yield a final concentration of 10.6 mM. Platelet-rich plasma (PRP) was prepared by centrifugation and removed from the red-cell sediment. Approximately 0.5 mL platelet-poor plasma (PPP) was prepared from PRP by further centrifugation. Inhibition of platelet aggregation was performed by light transmission aggregometry in citrated PRP, using an 8-channel platelet aggregation profiler (PAP 8) aggregometer (möLab, Germany). The PRP (0% light transmission) and PPP (100% light transmission) served as reference. After baseline adjustment, ADP in a final concentration of 20 μM was added and aggregation recorded for 6 min. Maximum aggregation (%) within the first 6 min after addition of ADP was determined.

Data set [3] is described as follows: Capillary bleeding time (Surgicutt device). The format is in vivo, healthy male subjects. The protocol:
The bleeding time was assessed by single measurements on the forearm using the Surgicutt® Bleeding Time Device (Product Number SUB50, International Technidyne, Edison, NJ, USA). Using a Surgicutt device, a standardized incision of 5 mm length and 1 mm depth was made in the skin. Every 30 s, the blood flow was wicked away cautiously with filter paper, so that the platelet plug remained intact, until the bleeding stopped. Normal bleeding time was under 8 min. For the CBT individual listings including the baseline value, the maximum value of the post-dose measurements, and the corresponding time of the maximum value were provided.

A further data set relates to P-gp. The settings on record: cited from earlier work.
The nature of data set [4]: Safety and tolerability assessment. The data set is classed as in vivo, healthy male subjects. The settings on record: given alone or in combination with clopidogrel.
The conditions of data set [5]: cited from earlier work.
A short description of data set [6]: Plasma pharmacokinetics (HPLC-MS/MS) in open-label drug–drug interaction trial. How it is done:
The treatment phase was divided into three separate parts, each with a different set of subjects. Part 1 (pilot study) was an open-label, multiple-dose (for dabigatran etexilate) and single-dose (for clopidogrel), fixed-sequence study. A single dose of clopidogrel 300 mg was given in addition to dabigatran etexilate 150 mg bid in steady state (Table 1). Part 2 (main study) was a randomized, open-label, multiple-dose, crossover study, with three periods of up to 5 days separated by washout periods of at least 14 days. The test treatment consisted of a clopidogrel 300 mg loading dose on day 1, followed by a 75 mg dose on day 2, then clopidogrel 75 mg qd in combination with dabigatran etexilate 150 mg bid on days 3–5 (Table 1). Part 3 (main study) was an open-label, multiple-dose (for dabigatran etexilate) and single-dose (for clopidogrel), fixed-sequence study. A single dose of clopidogrel 600 mg was given alone or in addition to dabigatran 150 mg bid at steady state (Table 1).
Although there are no reported interactions of food with dabigatran etexilate or clopidogrel, the morning medication was administered with about 240 mL of water following an overnight fast of at least 10 h, and no food was allowed until 4 h after drug administration. According to the twice-daily regimen dabigatran etexilate was similarly administered again 12 h later. Subjects were not allowed to lie down during the 2 h following drug administration, and water was limited for 1 h before and after drug administration. On dosing days a light non-standardized breakfast was given 1 h after morning drug administration. On profile days, no food was given until 4 h after administration. No concomitant therapy was allowed during the study, except for prophylactic thyroid hormone replacement and for symptomatic therapy of adverse events (AEs) in need of treatment.
For PK parameter evaluations, blood samples were taken for the determination of plasma concentrations of free, nonconjugated dabigatran, total dabigatran (after alkaline cleavage of conjugates), and the prodrug dabigatran etexilate, and of clopidogrel and SR26334.
Blood samples were taken before and at specified intervals up to 24 h after the morning clopidogrel dose, and before and up to 24 h after the morning and evening dabigatran etexilate dose. Timings of PK/PD sampling are shown in Supplementary Table 1.
Blood samples (∼2.7 mL for dabigatran and ∼4.0 mL for clopidogrel) were collected into tubes containing potassium ethylenediaminetetraacetic acid for PK analysis. Samples were centrifuged, and the resulting plasma samples were separated and stored at −70°C or below.
Plasma concentrations of free, nonconjugated dabigatran; total dabigatran (sum of free and conjugated dabigatran measured after alkaline cleavage of conjugates); the prodrug dabigatran etexilate; clopidogrel; and SR26334 were determined by validated high-performance liquid chromatography tandem mass spectrometry (HPLC-MS/MS) at AAI Pharma Deutschland (Neu-Ulm, Germany). The calibration curves for free and total dabigatran covered a range from 1.00 to 400 ng/mL plasma in undiluted samples. […] Maximum imprecision and inaccuracy for quality control samples at concentrations of 3, 30, and 320 ng/mL were 6.62 and +5.86%, respectively. For the prodrug, maximum imprecision and inaccuracy were 6.63 and +2.83%, respectively.
Calibration curves for clopidogrel and SR26334 covered concentration ranges of 0.01–10 ng/mL and 0.02–20 μg/mL, respectively, with an inaccuracy generally below 4% and imprecision below 9%. For blood coagulation parameters aPTT, ECT, and TT (PD analyses), ∼3 mL of blood were collected in sodium citrate monovettes at the time points indicated for PK analyses. The blood samples were centrifuged, frozen, and stored at −20°C or below.

For data set [7] the following is noted: cited from earlier work. This is another data set of the same source.
Setting [8] is: part 2, clopidogrel 75 mg qd + DE 150 mg bid vs clopidogrel 75 mg qd.
[9] abbreviates: part 2, reference: clopidogrel 75 mg qd alone, n=23.
Where [10] appears, read: part 2, test: clopidogrel 75 mg qd + DE 150 mg bid, n=21, clopidogrel metabolite.
Setting [11] is: part 3, DE 150 mg bid + clopidogrel 600 mg vs clopidogrel 600 mg.

SMILES strings stand for the structures. Where two headings read alike, the source gives them in different places.

As for `CCCCCCOC(=O)NC(=N)c1ccc(NCc2nc3cc(C(=O)N(CCC(=O)OCC)c4ccccn4)ccc3n2C)cc1` [dabigatran etexilate], the “increase in gMean AUECτ,ss of aPTT” value in data set [1] (part 1, DE 150 mg bid steady state with single dose clopidogrel 300 mg vs DE alone) is “about 30%”. In addition, the “AUEC τ,ss and ERmax,ss of TT, ECT and aPTT after concomitant administration” value in data set [1] (part 2, clopidogrel 75 mg qd (300 mg loading dose) + DE 150 mg bid) is listed as “not altered”. Also, the “change in AUECτ,ss of aPTT” value in data set [1] (part 3, DE 150 mg bid with single dose clopidogrel 600 mg vs DE alone) is recorded as “approximately 36.5%”. Besides, in data set [1] (part 3, single dose clopidogrel 600 mg coadministered with DE 150 mg bid), the “dabigatran-related effect on TT, ECT and aPTT when clopidogrel coadministered” value is reported as “slightly increased”. Besides, in data set [2], the “effect of coadministration on maximum ADP-dependent platelet aggregation achieved after clopidogrel” value was “did not alter”. Also, the “CBT on coadministration compared with clopidogrel alone” value in data set [3] (part 3, DE 150 mg bid with clopidogrel 600 mg vs single dose clopidogrel 600 mg alone) was “did not increase”. In addition, in the data set with P-gp, the “substrate for P-gp” value is “is a substrate for P-gp”. Also, the overall safety entry in data set [4] is recorded as “did not seem to cause any safety issues”.

Turning to `[H]/N=C(/N)c1ccc(NCc2nc3cc(C(=O)N(CCC(=O)O)c4ccccn4)ccc3n2C)cc1` [dabigatran], in data set [1] (part 1, single dose clopidogrel 300 mg added to steady-state DE 150 mg bid), the “effect on coagulation parameters (aPTT, ECT, anti-factor IIa) when clopidogrel added” value is “slightly increased”. Also, the “glucuronide conjugates as share of total dabigatran in plasma” value in data set [5] is “about 20%”. Besides, the half-life in data set [5] (multiple-dose administration) is 14 to 17 h; in data set [5] (single-dose administration), 8 to 10 h. Also, the “maximum capillary bleeding time (CBT)” value in data set [3] (part 2) is “did not prolong”. In the data set with P-gp, the “substrate for P-gp” value is “not”. In addition, the “increase in bioavailability (AUCτ,ss)” value in data set [6] (male, human, in vivo) turned out to be 32%.

With `O=C(O)[C@H](c1ccccc1Cl)N1CCc2sccc2C1` [SR26334], the “AUC0–24” value in data set [6] (part 1, clopidogrel 300 mg single dose with DE 150 mg bid) is given as 35,400 pg h/mL. Further, in data set [6] (setting [8]), the “AUCτ,ss ratio test/reference, gMean” value came to 110% and the “Cmax,ss ratio test/reference, gMean” value is listed as 103%. In data set [6] (setting [9]), the “AUCτ,ss, gMean” value came to 8008 ng·h/mL and the “Cmax,ss, gMean” value turned out to be 2689 ng/mL. Moreover, in data set [6] (setting [10]), the “AUCτ,ss, gMean” value was found to be 8807 ng·h/mL and the “Cmax,ss, gMean” value was 2760 ng/mL. In addition, in data set [6] (setting [11]), the “AUC0-24 ratio test/reference, gMean” value is recorded as 97.8% and the “Cmax ratio test/reference, gMean” value was 85.7%. Further, in data set [6] (part 3, reference: clopidogrel 600 mg alone, n=12), the “AUC0-24, gMean” value worked out at 84.3 ng·h/mL. Also, in data set [6] (part 3, test: DE 150 mg bid + single dose clopidogrel 600 mg), the “AUC0-24, gMean” value is on record as 82.5 ng·h/mL.

As to `CCOC(=O)CN[C@@H](C(=O)N1CC[C@H]1C(=O)NCc1ccc(/C(N)=N\O)cc1)C1CCCCC1` [ximelagatran], the “further prolongation of CBT” value in data set [7] (phase I trial, in combination with acetylsalicylic acid (ASA) compared with ASA alone) is on record as “about 40%”.

On to `O=C(NC[C@H]1CN(c2ccc(N3CCOCC3=O)cc2)C(=O)O1)c1ccc(Cl)s1` [rivaroxaban], for which, in data set [7], the “bleeding time, overall least square means” value was 1.13 times baseline.
